# Measurements reported in PubChem BioAssay AID1902 (Broad Institute, 2009).
# Calls of active or inactive are those of the source.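 Rule for the calls: active = EC50 no more than a set limit of log units above the highest dose; inactive = the rest.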
# Target: S. pyogenes SKKanGAS, kanamycin survival, BacTiterGlo, 6 h
# Assay: S. pyogenes SKKanGAS kanamycin growth inhibitors – SKKanGAS strain, luminescence, dose confirmation, streptokinase promoter inhibitor project, dose response (AID 1902);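 note: lower survival reflects blocked streptokinase promoter driving kanamycin resistance gene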
row,SMILES,EC50
1,Cc1cc(C(=O)Nc2nc(-c3ccccn3)cs2)ccc1[N+](=O)[O-],1.69 µM
2,Oc1c(N=NC(=S)Nc2ccccc2F)c2ccccc2n1Cc1ccc(F)cc1,0.892 µM
3,O=C(CNC(=O)c1ccc2c(c1)OCO2)N/N=C/c1cc(Br)ccc1O,2.38 µM
4,O=C(CCCCCNC(=O)c1ccccc1)N=Nc1c(O)[nH]c2c(Br)cc(Br)cc12,5.43 µM
5,CCN1CCN(Cc2ccc(NC(=O)c3ccc(C)c(/C=C/c4cnc(Nc5cc(N6CCNCC6)nc(C)n5)cn4)c3)cc2C(F)(F)F)CC1,8.41 µM
6,COc1cccc(Nc2c3c(nc4c(-c5ccccc5)c(C)nn24)CCC3)c1,1.8 µM
7,COc1ccc(O)c(C(=O)c2cc(SCC(=O)O)c3nc4sc5c(c4c(=O)n3c2)CCCC5)c1,4.1 µM
8,CCn1ccnc1CN1CCc2c([nH]c3ccccc23)C1C1CCCCC1 (stereo not drawn),2.02 µM
9,O=[N+]([O-])c1cc(S(=O)(=O)Nc2cccc(Cl)c2)ccc1N=Nc1c(O)[nH]c2ccccc12,3.61 µM
10,COc1ccc(-c2cc(C3CCN(c4ncccc4[N+](=O)[O-])CC3)[nH]n2)cc1,5.01 µM
11,Oc1ccc(/C=N/n2c3ccccc3c3ccccc32)cc1,5.79 µM
12,Cc1onc(-c2ccccc2)c1C(=O)NC(=S)NNC(=O)c1ccc(O)cc1,0.568 µM
13,Cc1ccccc1CN1CCCN(Cc2ccc(Cl)cc2)S1(=O)=O,4.05 µM
14,CCOC(=O)N1CCN(C(=O)c2ccc3c(c2)NC(=O)/C(=C/c2ccccc2)S3)CC1,1.59 µM
15,COc1c(N2CCN(C(=S)Nc3ccc(F)cc3)C(C)C2)c(F)cc2c(=O)c(C(=O)O)cn(C3CC3)c12 (stereo not drawn),3.37 µM
16,COc1ccc(/C=C/C(=O)NC(=S)N2CCN(c3ccccc3OC)CC2)cc1,> 15 µM (inactive)
17,O=C(O)c1ccccc1N/N=C/c1cc(Br)cc(Br)c1O,7.96 µM
18,COc1cc(C(=O)Nc2ccc(-c3nc4cc(C)ccc4o3)c(O)c2)cc(OC)c1OC,3.9 µM
19,Oc1ccc(N=Nc2ccc3c(c2)OCCO3)c2ncccc12,0.419 µM
20,O=C(c1cccs1)N1CCC(c2nc3c(nnn3Cc3ccccc3Cl)c(=O)[nH]2)CC1,7.09 µM
21,Cc1cc2oc(=O)cc(CN(C)Cc3ccccc3Cl)c2cc1C,4.2 µM
22,Cc1cccc(NC(=O)C(=O)NNC(=O)c2ccc(C(C)(C)C)cc2)c1,5.41 µM
23,O=C(NNc1ccccc1Br)C(O)(c1cccc(C(F)(F)F)c1)c1cccc(C(F)(F)F)c1,2.59 µM
24,CCc1ccc2c(c1)C1(NN=C(c3ccccc3)S1)C(=O)N2 (stereo not drawn),0.245 µM
25,O=C(O)CSCC(=O)N(Cc1ccccc1)c1nc(-c2ccccc2)c(-c2ccccc2)s1,1.58 µM
26,COc1cc([N+](=O)[O-])cc(/C=N/NC(=O)c2cc(-c3ccccc3)nc3ccccc23)c1O,3.2 µM
27,O=C(c1ccccc1)c1cc2ccc(O)cc2oc1=O,6.03 µM

row,SMILES,EC50
1,COc1ccc(O)c(C(=O)CC(=O)c2ccccc2C)c1,4.76 µM
2,Cc1ncc(CO)c(/C=N/NC(=O)c2cc(Br)ccc2O)c1O,1.52 µM
3,Cc1ccc(-n2c(SCC(=O)Nc3ccc4c5c(cccc35)CC4)nc(O)cc2=O)cc1,11.9 µM
4,CCCSc1nsc(NC(=O)C(c2ccccc2)c2ccccc2)n1,3.03 µM
5,CN(CC1CCCO1)S(=O)(=O)c1ccc(C(=O)Nc2ccccc2F)cc1 (stereo not drawn),> 15 µM (inactive)
6,CCOC(=O)c1cnn(-c2nc(-c3ccccc3F)cs2)c1C(F)(F)F,10.9 µM
7,COc1ccc(C(=O)c2c(C(F)(F)F)oc3c2C(=O)c2ccccc2C3=O)cc1OC,0.746 µM
8,O=C(Nc1cccc(NC(=O)c2ccccc2Cl)c1)c1ccc([N+](=O)[O-])o1,4.81 µM
9,CCOC(=O)c1c(NC(=O)c2c(N)n(CCCOC)c3nc4ccccc4nc23)sc2c1CCCC2,8.85 µM
10,CC(C)(C)c1ccc(C(=O)NCc2nnc(SCC(=O)NC3CCCC3)o2)cc1,> 15 µM (inactive)
11,CC(C)(C)c1ccc2c(c1)OC(C(=O)N/N=C/c1ccc([N+](=O)[O-])o1)CO2 (stereo not drawn),3.92 µM
12,O=C(N/N=C\C=C\c1ccc([N+](=O)[O-])o1)c1cccs1,1.97 µM
13,Cc1cccc(C)c1-n1cccc1/C=C1\SC(=S)N(c2cccc(C(=O)O)c2)C1=O,2.26 µM
14,CCC(=O)N1N=C(c2c(O)n(CCc3ccccc3)c(=O)[nH]c2=O)CC1c1ccc(OC)c(OC)c1 (stereo not drawn),0.991 µM
15,CCCCC[n+]1ccn(C2=C([O-])c3ccccc3C(=O)/C2=N\S(=O)(=O)c2ccc(Br)cc2)c1,2.87 µM
16,O=C(N/N=C/c1ccccc1O)c1ccc2c(c1)OCO2,2.76 µM
17,Cc1ccc(/C=C/C(=O)c2ccccc(=O)c2O)cc1C,4.04 µM
18,CNC(=S)N/N=C/c1cn(Cc2ccc(C)cc2)c2ccccc12,5.33 µM
19,O=[N+]([O-])c1ccc(S(=O)(=O)Nc2ccc(-c3csc(-c4ccccc4)n3)cc2)cc1,2.79 µM
20,Cc1cccnc1NCc1ccc(O)c2ncccc12,5.65 µM
21,CC(C)Oc1ccc(C(=O)Nc2nc3ccccc3[nH]2)cc1,1.41 µM
22,Cc1ccc(C(=O)n2c(N)nc3ccccc32)cc1,4.29 µM
23,CC(C)C[C@H](NC(=O)c1[nH]cnc1C(=O)N[C@H](C)c1ccccc1)C(=O)OC(C)(C)C,6.02 µM
24,O=c1c(O)c(-c2cccs2)oc2ccc(Cl)cc12,2.06 µM
25,C=CCn1c(O)c(C(CC)=Nc2ccc(N(C)C)cc2)c(=O)[nH]c1=O,3.05 µM
26,COc1ccc(C(=O)NNC(=S)NC(=O)c2ccc(Br)o2)cc1OC,0.779 µM
